Reference: the supplement of paper PMC10307832

Columns and labels:
Experiment in all cases: relative viability (nuclei count vs DMSO), 5 days (fraction); higher = more cells survive
NCI-H358 = tested on: NCI-H358
In short: (§1)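 For relative viability, nuclei counts in treated wells were divided by those in vehicle wells. Lung cancer cell lines had been pin-tool dosed in 1536-well plates the day after seeding and cultured for 5 days, then fixed and stained in one step (final 0.05% Triton X-100, 1% formaldehyde, 1 ug/ml Hoechst) and imaged at 4×. Doses were one drug alone or a fixed anchor-drug dose plus five library-drug doses (not always all listed) in √10 steps, and values are duplicate-plate medians.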

NCI-H1755 = tested on: NCI-H1755
In short: as §1

LOU-NH91 = tested on: LOU-NH91
In short: as §1

NCI-H1915 = tested on: NCI-H1915
In short: as §1

A-427 = tested on: A-427
In short: as §1

RERF-LC-KJ = tested on: RERF-LC-KJ
In short: as §1

NCI-H2347 = tested on: NCI-H2347
In short: as §1

NCI-H460 = tested on: NCI-H460
In short: as §1

HCC-78 = tested on: HCC-78
In short: as §1

NCI-H2126 = tested on: NCI-H2126
In short: as §1

NCI-H1975 = tested on: NCI-H1975
In short: as §1

HOP-62 = tested on: HOP-62
In short: as §1

SK-LU-1 = tested on: SK-LU-1
In short: as §1

NCI-H647 = tested on: NCI-H647
In short: as §1

LC-2-ad = tested on: LC-2-ad
In short: as §1

NCI-H1792 = tested on: NCI-H1792
In short: as §1

NCI-H2228 = tested on: NCI-H2228
In short: as §1

SW 1573 = tested on: SW 1573
In short: as §1

NCI-H1734 = tested on: NCI-H1734
In short: as §1

LXF-289 = tested on: LXF-289
In short: as §1

HCC-15 = tested on: HCC-15
In short: as §1

PC-3 [JPC-3] = tested on: PC-3 [JPC-3]
In short: as §1

With `Oc1nc(-c2ccc(C(F)(F)F)cc2)nc2c1CSCC2` [XAV939] + C[C@]1(O)C[C@@H](c2nc(-c3ccc4ccc(-c5ccccc5)nc4c3)c3c(N)nccn32)C1 [Linsitinib] (partner 1 µM) the relative viability (NCI-H358; first compound 0.08 µM) was 0.832, the relative viability (NCI-H358; first compound 0.253 µM) was 0.551 and the relative viability (NCI-H358; first compound 0.8 µM) was 0.655. The relative viability (NCI-H358; first compound 2.53 µM) was 0.558, the relative viability (NCI-H1755; first compound 0.08 µM) was 0.975 and the relative viability (NCI-H1755; first compound 0.253 µM) was 0.865. For the same compound, the relative viability (NCI-H1755; first compound 0.8 µM) was 0.969, the relative viability (NCI-H1755; first compound 2.53 µM) was 0.921 and the relative viability (LOU-NH91; first compound 0.08 µM) was 0.903. For the same compound, the relative viability (LOU-NH91; first compound 0.253 µM) was 0.842, the relative viability (LOU-NH91; first compound 0.8 µM) was 0.996 and the relative viability (LOU-NH91; first compound 2.53 µM) was 0.911. The relative viability (NCI-H1915; first compound 0.08 µM) was 1.13, the relative viability (NCI-H1915; first compound 0.253 µM) was 1.11 and the relative viability (NCI-H1915; first compound 0.8 µM) was 1.04. For the same compound, the relative viability (NCI-H1915; first compound 2.53 µM) was 1.11, the relative viability (A-427; first compound 0.08 µM) was 1.02 and the relative viability (A-427; first compound 0.253 µM) was 1.12. It also gave a relative viability (A-427; first compound 0.8 µM) of 1.08, a relative viability (A-427; first compound 2.53 µM) of 1.08 and a relative viability (RERF-LC-KJ; first compound 0.08 µM) of 0.881. For the same compound, the relative viability (RERF-LC-KJ; first compound 0.253 µM) was 0.765, the relative viability (RERF-LC-KJ; first compound 0.8 µM) was 0.789 and the relative viability (RERF-LC-KJ; first compound 2.53 µM) was 0.661. For the same compound, the relative viability (NCI-H2347; first compound 0.08 µM) was 1.08, the relative viability (NCI-H2347; first compound 0.253 µM) was 0.997 and the relative viability (NCI-H2347; first compound 0.8 µM) was 0.931. It also gave a relative viability (NCI-H2347; first compound 2.53 µM) of 1, a relative viability (NCI-H460; first compound 0.08 µM) of 0.988 and a relative viability (NCI-H460; first compound 0.253 µM) of 0.651. For the same compound, the relative viability (NCI-H460; first compound 0.8 µM) was 0.959, the relative viability (NCI-H460; first compound 2.53 µM) was 0.778 and the relative viability (HCC-78; first compound 0.08 µM) was 0.59. For the same compound, the relative viability (HCC-78; first compound 0.253 µM) was 0.448, the relative viability (HCC-78; first compound 0.8 µM) was 0.616 and the relative viability (HCC-78; first compound 2.53 µM) was 0.443. The relative viability (NCI-H2126; first compound 0.08 µM) was 0.727, the relative viability (NCI-H2126; first compound 0.253 µM) was 0.61 and the relative viability (NCI-H2126; first compound 0.8 µM) was 0.672. It also gave a relative viability (NCI-H2126; first compound 2.53 µM) of 0.642, a relative viability (NCI-H1975; first compound 0.08 µM) of 0.854 and a relative viability (NCI-H1975; first compound 0.253 µM) of 0.711. For the same compound, the relative viability (NCI-H1975; first compound 0.8 µM) was 0.97, the relative viability (NCI-H1975; first compound 2.53 µM) was 0.673 and the relative viability (HOP-62; first compound 0.08 µM) was 1.01. The relative viability (HOP-62; first compound 0.253 µM) was 0.882, the relative viability (HOP-62; first compound 0.8 µM) was 0.954 and the relative viability (HOP-62; first compound 2.53 µM) was 0.939. The relative viability (SK-LU-1; first compound 0.08 µM) was 1.2, the relative viability (SK-LU-1; first compound 0.253 µM) was 1.03 and the relative viability (SK-LU-1; first compound 0.8 µM) was 1.02. The relative viability (SK-LU-1; first compound 2.53 µM) was 1.07, the relative viability (NCI-H647; first compound 0.08 µM) was 1.13 and the relative viability (NCI-H647; first compound 0.253 µM) was 0.864. It also gave a relative viability (NCI-H647; first compound 0.8 µM) of 1.06, a relative viability (NCI-H647; first compound 2.53 µM) of 1.02 and a relative viability (LC-2-ad; first compound 0.08 µM) of 0.873. It also gave a relative viability (LC-2-ad; first compound 0.253 µM) of 0.797, a relative viability (LC-2-ad; first compound 0.8 µM) of 0.819 and a relative viability (LC-2-ad; first compound 2.53 µM) of 0.73. The relative viability (NCI-H1792; first compound 0.08 µM) was 0.672, the relative viability (NCI-H1792; first compound 0.253 µM) was 0.537 and the relative viability (NCI-H1792; first compound 0.8 µM) was 0.557. It also gave a relative viability (NCI-H1792; first compound 2.53 µM) of 0.453, a relative viability (NCI-H2228; first compound 0.08 µM) of 0.684 and a relative viability (NCI-H2228; first compound 0.253 µM) of 0.683. The relative viability (NCI-H2228; first compound 0.8 µM) was 0.81, the relative viability (NCI-H2228; first compound 2.53 µM) was 0.551 and the relative viability (SW 1573; first compound 0.08 µM) was 0.78. It also gave a relative viability (SW 1573; first compound 0.253 µM) of 0.675, a relative viability (SW 1573; first compound 0.8 µM) of 0.739 and a relative viability (SW 1573; first compound 2.53 µM) of 0.635. For the same compound, the relative viability (NCI-H1734; first compound 0.08 µM) was 0.841, the relative viability (NCI-H1734; first compound 0.253 µM) was 0.853 and the relative viability (NCI-H1734; first compound 0.8 µM) was 0.961. For the same compound, the relative viability (NCI-H1734; first compound 2.53 µM) was 0.709, the relative viability (LXF-289; first compound 0.08 µM) was 0.991 and the relative viability (LXF-289; first compound 0.253 µM) was 0.954. The relative viability (LXF-289; first compound 0.8 µM) was 0.975, the relative viability (LXF-289; first compound 2.53 µM) was 0.952 and the relative viability (HCC-15; first compound 0.08 µM) was 0.923. For the same compound, the relative viability (HCC-15; first compound 0.253 µM) was 0.851, the relative viability (HCC-15; first compound 0.8 µM) was 0.859 and the relative viability (HCC-15; first compound 2.53 µM) was 0.848. It also gave a relative viability (PC-3 [JPC-3]; first compound 0.08 µM) of 0.916, a relative viability (PC-3 [JPC-3]; first compound 0.253 µM) of 0.863 and a relative viability (PC-3 [JPC-3]; first compound 0.8 µM) of 1. For the same compound, the relative viability (PC-3 [JPC-3]; first compound 2.53 µM) was 0.874.
